Series [1] is described as follows: Digestibility of GHB oligomers in normal rats: serum GHB after gavage (GC-MS). To be noted: for time for serum GHB to decrease to baseline values / be absorbed and cleared from the circulation: after gavage with GHB monomer.
The conditions of series [2]: cited from earlier work.
For series [3], the system named is sleep. To be noted: rat, large dose; cited from earlier work.
[4] abbreviates: male, Sprague-Dawley, rat, serum, oral, 50 mg/kg.

The source of these data is US6623730B1, “Therapeutic uses of polymers and oligomers comprising gamma-hydroxybutyrate” (Tepha, Inc., priority 1999, dated 2003).

As to `O=C(O)CCCO` [GHB Monomer, Gamma-hydroxybutyrate], in series [1] (setting [4]), the concentration at 0.5 h was 182 ± 158 µM, the concentration at 1 h is 23.2 ± 2.05 µM, the concentration at 2 h amounted to 12.8 ± 2.62 µM and the concentration at 4 h stood at 14.9 ± 3.31 µM. Besides, the “GHB Monomer [GHB] concentration of GHB in serum” value in series [1] (rat serum, 0.5 hr after gavage with 50 mg/kg sodium GHB monomer in TWEEN, 50 mg/kg) came to 182 ± 158 µM. Besides, the “time for serum GHB to decrease to baseline values / be absorbed and cleared from the circulation” value in series [1] (rat, listed as GHB monomer) is not above 2 h. The “time for serum GHB to decrease to baseline values / be absorbed and cleared from the circulation” value in series [1] (rat, listed as monomer) fell in the range of 1 to 2 h. In series [2] (after oral administration), the “time of peak plasma concentration” value was 20 to 60 min. Also, the “half-life of GHB” value in series [2] (in vivo) is 35 min.

As for `CCOC(=O)CCCOC(C)=O` [ethyl 4-acetoxybutanoate], the sleep duration result in series [3] is on record as “four”.
